# In patent US10010581B2, “Syndecan peptides and polypeptides and uses thereof” (Wisconsin Alumni Research Foundation, priority 2012, dated 2018):
# Assays:
# [1] = test system: HaCat human keratinocytes; assay: total cell number, CellTiterGLO assay; type: cell-based; settings: single peptide, concentrations as high as 30 μM, 4 or 7 days
# Experimental: FIGS. 11A-F. SSTN treatment of normal (nontransformed) epithelial cells versus carcinoma (transformed) cells. Cells are plated for one day, then treated with either 3-30 μM […] (SSTN-I), 3-30 μM […] (SSTN-E), 3-30 μM SSTNHER2 (SSTN-H) or combinations of the three peptides, each at 10 μM to test their additive effect. […] The treatment times are chosen to reflect only modest effects of the peptides used singly, so that the more pronounced effect of peptides used in combination can still be observed. Treatment for longer times leads to significant cell death observed even with single peptides alone. (FIG. 11A) HaCat human keratinocytes, an example of a normal stratified epithelium, (FIG. 11B) UM-SCC47 cells, a squamous cell carcinoma derived from the tongue of a patient (a stratrified epithelium), (FIG. 11C) SCC25 cells, another squamous cell carcinoma from the tongue of a patient (FIG. 11D) MCF10A cells, a normal human breast epithelium, (FIG. 11E) MDA-MB-468 cells, a triple-negative (TN) breast carcinoma, and (FIG. 11F) SKBr3 cells, a HER2+ human breast carcinoma. Note that the “triple-negative” designation of the MDA-MB-468 carcinoma means the cells are negative for progesterone receptor, estrogen receptor and the HER2 kinase. Thus, they would not be expected to rely on HER2. Indeed, these cells are not affected by SSTNHER2, either alone or when combined with the other peptides. […]
# HaCat keratinocytes = assay: scratch wound haptotaxis induced by LPA and clustering of α6β4 integrin; type: cell-based, human; settings: LPA + α6β4 clustered with mAb 3E1 and secondary antibody, AG825 10 μM, Iressa 1 μM
# From the text: FIG. 6A-D. Sdc1 is required for HER2/α6β4-dependent HaCat keratinocyte migration. (FIG. 6A) HaCat keratinocytes deposit laminin 332 (LN332) and migrate upon this using α3β1 and α6β4 integrins to close a scratch wound in the monolayer when stimulated to undergo chemotaxis in response to EGF. Alternatively, migration is induced by clustering the integrin (using mAb 3E1 against the integrin+a secondary antibody to cluster the first antibody and thus the entire complex) in the presence of LPA. This mimics the clustering that occurs when the cells engage LN332 and is referred to as haptotaxis. […] (FIG. 6B) Haptotaxis, stimulated by LPA and clustering of α6β4 integrin as described in FIG. 6A, is blocked by antibody directed against the α3β1 integrin or by BM165 which targets the binding site for α3β1 in LN332. […] (FIG. 6C) The potential roles of Sdc1 or Sdc4 in haptotaxis is tested by silencing their expression, together with attempting to rescue with either wild-type mouse Sdc1 or Sdc4, or mouse mutants unable to engage the β4 cytoplasmic domain (mSdc1ΔC2 or mSdc4ΔC2). Haptotaxis is blocked by silencing endogenous Sdc1, and this cannot be rescued by Sdc1ΔC2 that fails to engage the α6β4 integrin. Silencing Sdc4 also disrupts migration, but this traces to its role in activity of the α3β1 integrin and not a role in engaging the α6β4 integrin, as it can be rescued by mSdc4ΔC2 that fails to associate with the α6β4 integrin. (FIG. 6D) Immunoprecipitation of either native mSdc4 or mSdc4[…]C2 confirms that the mSdc4ΔC2 mutant no longer associates with the α6β4 integrin, but does with the α3β1 integrin. […]
# HaCat or MCF10A cells were grown to confluence on 48 well-plates were starved for 6 hr by serum deprivation followed by introduction of a scratch wound in the monolayer using 200 μl pipette tip. […] Images were acquired using a PlanApo 20 (0.75 numerical aperture) objective and a Photometrics CoolSnap ES camera on a Nikon Eclipse TE2000U microscopy system and wound closure quantified. […]
# [2] = test system: HaCat keratinocytes or MCF10A mammary epithelial cells; assay: competition of LPA-induced haptotactic migration by GST fusion proteins or synthetic peptides (FIG. 10 summary); type: cell-based, human; settings: 0.1 to 30 μM, 3 μM LPA
# Experimental: FIGS. 10A-C. Schematic summary of experiments using either recombinant GST fusion proteins or synthetic peptides to disrupt Sdc1-dependent coupling of HER2 to α6β4 integrin necessary for LPA-induced haptotactic migration. GST-fusion proteins or synthetic peptides were added at concentrations ranging from 0.1 to 30 μM to the culture medium of human HaCat keratinocytes or MCF10A mammary epithelial cells in the presence or absence of 3 μM LPA. The ability of the constructs to inhibit the migration of the cells to close a scratch wound in confluent monolayers was determined and expressed as the concentration of inhibitor necessary to cause 50% inhibition of cell migration. (FIG. 10A) Competition using recombinant GST-fusion proteins. GST-Sdc1 fusion proteins bearing truncations or mutations were assessed for their competitive activity. […] (FIG. 10B) Competition with synthetic peptides. Peptides were purchased from commercial sources for testing as a putative synstatin inhibitory peptide (SSTNHER2). […] (FIG. 10C) Schematic representation of the active site in Sdc1. The active site is shown as a juxtamembrane site in the ectodomain of Sdc1. TM is the transmembrane domain and CYTO is the cytoplasmic domain. The sequence of a peptide derived from this site (SSTNHER2) is shown along with its homology across other mammalian Sdc1 species. The human STTNHER2 sequence is SEQ ID NO:23; the homology for STTNHER2 across mammals is SEQ ID NO:24.
# HaCat or MCF10A cells were grown to confluence on 48 well-plates were starved for 6 hr by serum deprivation followed by introduction of a scratch wound in the monolayer using 200 μl pipette tip. Cells were cultured an additional 18 hr in DMEM containing mAb 3E1 (10 μg/ml) and goat anti-mouse IgG (50 μg/ml), EGF (10 ng/ml) or HGF (20 ng/ml) to cause cell migration in the presence or absence of inhibitors. Images were acquired using a PlanApo 20 (0.75 numerical aperture) objective and a Photometrics CoolSnap ES camera on a Nikon Eclipse TE2000U microscopy system and wound closure quantified.
substance,measurement,setting,value
"SSTNHER2: synthetic peptide of human Sdc1 ectodomain amino acids 210-240 (SEQ ID NO:3), inhibits Sdc1 coupling of HER2 to α6β4 integrin (DFTFETSGENTAVVAVEPDRRNQSPVDQGAT; listed as Homo sapiens)",growth or survival,[1],no effect
same,haptotaxis (migration to close a scratch wound),HaCat keratinocytes,blocks haptotaxis
same,competitive (inhibitory) activity on haptotactic migration,[2],fully active
